{"source": "paper PMC7993727", "about": "“Discovery of a novel AR/HDAC6 dual inhibitor for prostate cancer treatment” (Aging (Albany NY), 2021)", "key": {"[1]": {"system": "PSA", "test": "PSA mRNA (qRT-PCR) and protein (Western blot) expression in VCaP cells", "assay_type": "cell-based", "conditions": "10 nM DHT, 24 hours", "description": "RNA expression level was analyzed by qRT-PCR and protein expression level was analyzed by Western blot. […] (I) Representative immunofluorescence microscopic images of VCaP cells for checking the subcellular localization of AR.\nThe RNA of VCaP cells was extracted using a Simply P Total RNA Extraction kit (Bioer technology) and cDNA was synthesized using a SMARTer PCR cDNA Synthesis Kit (Clontech). PSA and β-actin primers were synthesized by Sangon Biotech according to previous literature. Real-time PCR was performed using the PowerUp SYBR™ Green kit (ThermoFisher). The PCR program was run on a LightCycler 480II (Roche) and set as follows: 2 minutes at 95° C followed by 40 cycles of 30 seconds at 95° C, 15 seconds at 60° C and 30 seconds at 72° C. Data were quantified using the 2-ΔΔCt method based on the Ct values of PSA and β-actin from two parallel experiments performed in triplicate.\nThe whole-cell extracts were prepared in lysis buffer with a protease inhibitor cocktail (Bimake), while the xenograft tissue extracts were prepared in 0.5% Nonidet P 40 Substitute solution (Biosharp) with cocktail protease inhibitor (Bimake). Each sample containing 30 μg of total protein was loaded onto 10% SDS-PAGE and electrotransferred onto polyvinylidene fluoride membranes. […]"}, "[2]": {"system": "VCaP xenograft tumors", "test": "castration-resistant VCaP xenograft mouse model", "assay_type": "in vivo, NOD-SCID mice", "text": "Figure 4 Zeta55 inhibits tumor growth in a CRPC xenograft model. (A) Percentage change in individual tumor volume of NOD-SCID mice with subcutaneous tumor xenograft grown from VCaP cells. NOD-SCID mice were castrated when the tumor volumes reached about 250mm^3 on 63 days after subcutaneous injection of VCaP cells. […]. Tumor sizes were monitored twice a week after treatment. (B) Mean tumor volumes (mm^3, +SEM) of NOD-SCID mice after treatment. (C) Mean body weight (g, +SEM) of NOD-SCID mice after treatment. *, P < 0.01 vs. vehicle.\nThe animal protocols used in this study were evaluated and approved by the Xiangya Hospital Medical ethics committee of Central South University. NOD-SCID mice were purchased from Hunan SJA Laboratory Animal Co. Ltd. with a quality license and raised in the SPF Laboratory Animal Room of the Department of Laboratory Zoology at Central South University. Briefly, VCaP cells were suspended in DMEM and Matrigel (BD) (1:1), and 5×10^6 cells/100 μl were subcutaneously injected into a 7-week-old male NOD-SCID mouse. […]. VCaP xenografts were measured twice per week in two dimensions (L and W) by a Vernier caliper, and the tumor volume was calculated as W^2×L/2 (mm^3).\nFormalin-fixed, paraffin-embedded xenograft tissue sections were used for immunohistochemistry. TUNEL staining was performed according to the instructions in the TUNEL kit (KeyGEN). Tissue sections were deparaffinized and then boiled in 0.01 mol/L sodium citrate buffer (pH 6.0) in a kilowatt microwave oven for 10 minutes to retrieve cell antigens. Ki67 (Abcam, ab15580) or AR (SANTA, sc-7305) was used as the primary antibody. All tissue sections were immunohistochemically stained using the avidin-biotin-peroxidase method and were counterstained with hematoxylin. The staining intensities were evaluated at 100× magnification."}}, "data": [{"smiles": "N#Cc1ccc(N2C(=O)C3(CCC3)N(c3ccc(C(=O)NO)c(F)c3)C2=S)cc1C(F)(F)F", "note": "[Zeta55]", "values": [{"measurement": "DHT-induced endogenous mRNA and protein expression of PSA", "setting": "[1]", "result": "significantly suppressed"}, {"measurement": "antitumor activity", "setting": "[2]; 30 mg/kg/d oral, 49 days, compared with MDV3100 30 mg/kg/d", "result": "slightly better antitumor activity than MDV3100"}, {"measurement": "tumors with tumor regression", "setting": "[2]; 60 mg/kg/d oral, 49 days, n=6, castrated NOD-SCID mice", "result": "5 of 6"}, {"measurement": "weights of mice during treatment", "setting": "[2]; 30 and 60 mg/kg daily oral", "result": "did not decrease significantly"}, {"measurement": "expression of AR and PSA in treated tumors", "setting": "[2]; immunohistochemical and Western blot analysis, compared to MDV3100 and vehicle", "result": "decreased expression of AR and PSA"}, {"measurement": "Ki-67 staining of tumor xenografts", "setting": "[2]; mouse, in vivo", "result": "inhibited tumor cell proliferation"}, {"measurement": "TUNEL staining of tumor xenografts", "setting": "[2]; mouse, in vivo", "result": "induced apoptosis"}]}]}
